Reference: PubChem BioAssay (NCI)
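Step 1: Grow cells in 96-well plates. Step 2: Expose to compound for 48 hours at 5 concentrations. Step 3: Interpolate endpoints linearly; if unreached, use highest concentration. At the GI50, growth is halved. At the TGI there is no net growth.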

Key:
Assay in all cases: inhibition of tumour cell growth, NCI panel, 48 h
HT29 colon = tested on: HT29 colon
SR leukemia = tested on: SR leukemia
HL-60(TB) leukemia = tested on: HL-60(TB) leukemia
RPMI-8226 leukemia = tested on: RPMI-8226 leukemia
SK-OV-3 ovarian = tested on: SK-OV-3 ovarian
HCT-15 colon = tested on: HCT-15 colon
A549 NSCLC = tested on: A549 NSCLC
KM12 colon = tested on: KM12 colon
LOX IMVI melanoma = tested on: LOX IMVI melanoma
U251 CNS = tested on: U251 CNS
PC-3 prostate = tested on: PC-3 prostate
UACC-257 melanoma = tested on: UACC-257 melanoma
UO-31 renal = tested on: UO-31 renal
SNB-75 CNS = tested on: SNB-75 CNS
SW-620 colon = tested on: SW-620 colon
K-562 leukemia = tested on: K-562 leukemia
786-0 renal = tested on: 786-0 renal
CCRF-CEM leukemia = tested on: CCRF-CEM leukemia
SF-268 CNS = tested on: SF-268 CNS
SK-MEL-28 melanoma = tested on: SK-MEL-28 melanoma
SN12C renal = tested on: SN12C renal
TK-10 renal = tested on: TK-10 renal
SF-539 CNS = tested on: SF-539 CNS
MOLT-4 leukemia = tested on: MOLT-4 leukemia
SNB-19 CNS = tested on: SNB-19 CNS
MDA-MB-468 breast = tested on: MDA-MB-468 breast
M14 melanoma = tested on: M14 melanoma
MCF7 breast = tested on: MCF7 breast
MALME-3M melanoma = tested on: MALME-3M melanoma
MDA-MB-231 breast = tested on: MDA-MB-231 breast
BT-549 breast = tested on: BT-549 breast
RXF 393 renal = tested on: RXF 393 renal
SK-MEL-5 melanoma = tested on: SK-MEL-5 melanoma
HCT-116 colon = tested on: HCT-116 colon
NCI-H522 lung = tested on: NCI-H522 lung
OVCAR-3 ovarian = tested on: OVCAR-3 ovarian
NCI-H23 lung = tested on: NCI-H23 lung
DU-145 prostate = tested on: DU-145 prostate
HCC-2998 colon = tested on: HCC-2998 colon
MDA-MB-435 = tested on: MDA-MB-435
OVCAR-4 ovarian = tested on: OVCAR-4 ovarian
IGROV1 ovarian = tested on: IGROV1 ovarian
SF-295 CNS = tested on: SF-295 CNS
CAKI-1 renal = tested on: CAKI-1 renal
T-47D breast = tested on: T-47D breast
HOP-62 NSCLC = tested on: HOP-62 NSCLC
A498 renal = tested on: A498 renal
COLO 205 colon = tested on: COLO 205 colon
NCI/ADR-RES ovarian = tested on: NCI/ADR-RES ovarian
UACC-62 melanoma = tested on: UACC-62 melanoma
OVCAR-5 ovarian = tested on: OVCAR-5 ovarian
ACHN renal = tested on: ACHN renal
HOP-92 NSCLC = tested on: HOP-92 NSCLC
EKVX NSCLC = tested on: EKVX NSCLC

CC[C@]12C=CCN3CC[C@@]4(c5ccc(OC)cc5N(C)[C@H]4[C@@](O)(C(=O)OC)[C@@H]1OC(=O)CCC[P+](c1ccc(C)cc1)(c1ccc(C)cc1)c1ccc(C)cc1)[C@@H]32
GI50 (HT29 colon): 195 nM | TGI (HT29 colon): 446 nM | GI50 (SR leukemia): 294 nM | TGI (SR leukemia): 1400 nM | GI50 (HL-60(TB) leukemia): 178 nM | TGI (HL-60(TB) leukemia): 593 nM | GI50 (RPMI-8226 leukemia): 128 nM | TGI (RPMI-8226 leukemia): 1040 nM | GI50 (SK-OV-3 ovarian): 262 nM | TGI (SK-OV-3 ovarian): 794 nM | GI50 (HCT-15 colon): 1630 nM | TGI (HCT-15 colon): 3040 nM | GI50 (A549 NSCLC): 369 nM | TGI (A549 NSCLC): 1470 nM | GI50 (KM12 colon): 309 nM | TGI (KM12 colon): 1110 nM | GI50 (LOX IMVI melanoma): 327 nM | TGI (LOX IMVI melanoma): 1140 nM | GI50 (U251 CNS): 258 nM | TGI (U251 CNS): 1400 nM | GI50 (PC-3 prostate): 236 nM | TGI (PC-3 prostate): 1080 nM | GI50 (UACC-257 melanoma): 310 nM | TGI (UACC-257 melanoma): 1120 nM | GI50 (UO-31 renal): 1450 nM | TGI (UO-31 renal): 2820 nM | GI50 (SNB-75 CNS): 217 nM | TGI (SNB-75 CNS): 777 nM | GI50 (SW-620 colon): 399 nM | TGI (SW-620 colon): 1580 nM | GI50 (K-562 leukemia): 140 nM | TGI (K-562 leukemia): 1150 nM | GI50 (786-0 renal): 756 nM | TGI (786-0 renal): 2080 nM | GI50 (CCRF-CEM leukemia): 301 nM | TGI (CCRF-CEM leukemia): 1450 nM | GI50 (SF-268 CNS): 335 nM | TGI (SF-268 CNS): 1420 nM | GI50 (SK-MEL-28 melanoma): 383 nM | TGI (SK-MEL-28 melanoma): 1460 nM | GI50 (SN12C renal): 264 nM | TGI (SN12C renal): 949 nM | GI50 (TK-10 renal): 602 nM | TGI (TK-10 renal): 1920 nM | GI50 (SF-539 CNS): 313 nM | TGI (SF-539 CNS): 1100 nM | GI50 (MOLT-4 leukemia): 320 nM | TGI (MOLT-4 leukemia): 1460 nM | GI50 (SNB-19 CNS): 290 nM | TGI (SNB-19 CNS): 1140 nM | GI50 (MDA-MB-468 breast): 133 nM | TGI (MDA-MB-468 breast): 354 nM | GI50 (M14 melanoma): 384 nM | TGI (M14 melanoma): 1370 nM | GI50 (MCF7 breast): 229 nM | TGI (MCF7 breast): 968 nM | GI50 (MALME-3M melanoma): 189 nM | TGI (MALME-3M melanoma): 448 nM | GI50 (MDA-MB-231 breast): 234 nM | TGI (MDA-MB-231 breast): 610 nM | GI50 (BT-549 breast): 227 nM | TGI (BT-549 breast): 727 nM | GI50 (RXF 393 renal): 256 nM | TGI (RXF 393 renal): 911 nM | GI50 (SK-MEL-5 melanoma): 356 nM | TGI (SK-MEL-5 melanoma): 1040 nM | GI50 (HCT-116 colon): 271 nM | TGI (HCT-116 colon): 1110 nM | GI50 (NCI-H522 lung): 264 nM | TGI (NCI-H522 lung): 929 nM | GI50 (OVCAR-3 ovarian): 337 nM | TGI (OVCAR-3 ovarian): 1270 nM | GI50 (NCI-H23 lung): 282 nM | TGI (NCI-H23 lung): 1020 nM | GI50 (DU-145 prostate): 427 nM | TGI (DU-145 prostate): 1580 nM | GI50 (HCC-2998 colon): 319 nM | TGI (HCC-2998 colon): 1200 nM | GI50 (MDA-MB-435): 290 nM | TGI (MDA-MB-435): 1040 nM | GI50 (OVCAR-4 ovarian): 352 nM | TGI (OVCAR-4 ovarian): 1580 nM | GI50 (IGROV1 ovarian): 336 nM | TGI (IGROV1 ovarian): 1180 nM | GI50 (SF-295 CNS): 371 nM | TGI (SF-295 CNS): 1310 nM | GI50 (CAKI-1 renal): 1330 nM | TGI (CAKI-1 renal): 3050 nM | GI50 (T-47D breast): 247 nM | TGI (T-47D breast): 907 nM | GI50 (HOP-62 NSCLC): 311 nM | TGI (HOP-62 NSCLC): 1170 nM | GI50 (A498 renal): 1560 nM | TGI (A498 renal): 3230 nM | GI50 (COLO 205 colon): 180 nM | TGI (COLO 205 colon): 364 nM | GI50 (NCI/ADR-RES ovarian): 8870 nM | TGI (NCI/ADR-RES ovarian): 49600 nM | GI50 (UACC-62 melanoma): 247 nM | TGI (UACC-62 melanoma): 822 nM | GI50 (OVCAR-5 ovarian): 267 nM | TGI (OVCAR-5 ovarian): 905 nM | GI50 (ACHN renal): 1320 nM | TGI (ACHN renal): 2700 nM | GI50 (HOP-92 NSCLC): 173 nM | TGI (HOP-92 NSCLC): 578 nM | GI50 (EKVX NSCLC): 460 nM | TGI (EKVX NSCLC): 1780 nM
